The text below walks through data of patent US8604003B2, “Promoter for hard tissue formation” (Seikagaku Corporation, priority 2005, dated 2013).

Entries after “also recorded” stand apart in the source; their conditions may differ.

Assay [1] concerns cell strain MC3T3-E1. As to the kind of experiment: Calcification ability, alizarin staining. The class given is cell-based, mouse. Particulars: MC3T3-E1, 50 μg/ml sample, first week after confluence. The procedure:
(§1) Cellular ALP activity was measured as the index of cell differentiation. Cells were inoculated onto a 24 well culture plate at a density of 5×10^3 cells/well and cultured by adding 50 μg/ml in final concentration of each sample to 2% FBS-containing αMEM. On the first week after the cells reached confluent, ALP activity was measured by the following enzymologic method (Bessey-Lowry method).
(§2) In order to examine calcification ability of the cells, alizarin staining (ALZ staining; stained in red indicates accelerated calcification) was carried out in accordance with the usual way, in the aforementioned “Actions on cell differentiation (1)” on the first week after the cells reached confluent. The cells were washed with PBS, fixed with 10 neutral-buffered formalin and then stained with 0.01 Alizarin Red S (manufactured by Wako Pure Chemical Industries).

Assay [2] relates to cell strain ST2. The assay is described as follows: Calcification ability, alizarin staining. It is filed as cell-based, mouse. Particulars: ST2, 50 μg/ml sample, first week after confluence. The procedure:
as §1, §2

The test system of assay [3] is Wistar rat. The assay is described as follows: Transplantation under the cranial periosteum on hydroxyapatite carrier, HE staining, formation of hard tissue (bone). It is filed as in vivo. Particulars: 3 mg/ml sample on hydroxyapatite under cranial periosteum, fourth and eighth week. The procedure: (§3) A Wistar rat of 8 weeks of age was subjected to general anesthesia with ethyl carbamate 20 solution at a dose of 0.5 ml per 100 g body weight, and then the forehead skin and periosteum were incised. Each sample to be tested (Hep, 2DSH, 6DSH or NDSH; 100 μl for each) diluted to a concentration of 3 mg/ml with PBS was transplanted under the cranial periosteum. In this case, hydroxyapatite was used as the carrier.
(§4) Specifically, a block of hydroxyapatite (size: 3 mm in length×2 mm in breadth×2 mm in height; adsorbs about 0.1 ml of solution) was soaked for 30 minutes in each sample to be tested of a concentration of 3 mg/ml. It was used for the transplantation.
A substance in which test sample-free PBS was used was used as the control.
Each animal was sacrificed on the fourth week and eighth week after transplantation of the sample to be tested. Then slices of the transplanted parts were prepared and subjected to hematoxylin-eosin staining (HE staining). It was observed under an optical microscope to evaluate degree of the formation of a hard tissue (bone).

The test system of assay [4] is cell strain MC3T3-E1. As to the kind of experiment: Cellular ALP activity, serum-free medium. It is filed as cell-based, mouse. The settings on record: 50 μg/ml sample, serum-free medium (FIG. 4). The procedure: (§5) A mouse bone marrow-derived mesenchymal cell strain, ST2 cell strain, and a mouse osteoblast-like cell strain having more high differentiation degree, MC3T3-E1 cell strain, (both obtained from RIKEN CELL BANK), were used. In the following, culturing of these cells was carried out all under a condition of 37° C. and 5% CO2. Additionally, antibiotics (100 U/ml in final concentration of penicillin G, 100 μg/ml in final concentration of streptomycin and 250 μg/ml in final concentration of gentamicin) were allowed to coexist in all of the media to be used for the culturing of these cells.
(§6) Cellular ALP activity was measured as the index of cell differentiation. […] On the first week after the cells reached confluent, ALP activity was measured by the following enzymologic method (Bessey-Lowry method).
(§7) After washing the cultured cells with PBS, the cells were disrupted and stirred for 40 seconds in 10 mM Tris-HCl buffer (pH 7.4, 500 μl) using an ultra sonic homogenizer (Handy Sonic model UR-20P; mfd. by Tomy Seiko Co., Ltd.). Next, 25 μl of the sample liquid was added to 125 μl of an ALP buffer (0.1M carbonate buffer pH 9.8, 6.7 mM p-nitrophenyl phosphate, 2 mM MgCl2) and incubated at 37° C. for 30 minutes. After terminating the reaction by adding 125 μL of 0.2 N NaOH, the absorbance at 405 nm was measured by using a microplate reader (Model 550, manufactured by Bio-Rad Laboratories). The calculated ALP activity was shown by unit per the number of cells. Additionally, a case in which the sample to be tested was not added was used as a control.
(§8) The results of adding each sample to be tested (Hep, 2DSH, 6DSH or NDSH) to the cell strain MC3T3-E1 are shown in FIG. 4, and the results of adding each sample to be tested (Hep, 2DSH, 6DSH or NDSH) to the cell strain ST2 are shown in FIG. 5, respectively. In this connection, the calculated ALP activity was shown by a numerical value of cells per DNA weight.

Assay [5] relates to cell strain ST2. As to the kind of experiment: Cellular ALP activity, serum-free medium. It is filed as cell-based, mouse. The settings on record: 50 μg/ml sample, serum-free medium (FIG. 5). The method, then:
as §5, §6, §7, §8

Assay [6] deals with cell strain MC3T3-E1. As to the kind of experiment: Cellular ALP activity (Bessey-Lowry method), 2% FBS-containing αMEM. It is filed as cell-based, mouse. The settings on record: 50 μg/ml sample, first week after confluence, vs control without sample (FIG. 1, FIG. 2). The procedure: as §5, §1, §7
(§9) The results in which each sample to be tested was added to the cell strain MC3T3-E1 are shown in FIG. 1, and the results in which a sample to be tested (Hep, 2DSH, 6DSH or NDSH) was added to the cell strain MC3T3-E1 are shown in FIG. 2, and the results in which a sample to be tested (Hep, 2DSH, 6DSH or NDSH) was added to the cell strain ST2 are shown in FIG. 3, respectively.

The subject of assay [7] is cell strain ST2. Described as above. It is filed as cell-based, mouse. The settings on record: 50 μg/ml sample, first week after confluence, vs control without sample (FIG. 3). The procedure:
as §5, §1, §7, §9

In assay [8] the test system is cell strain MC3T3-E1. The assay is described as follows: Actions on cell growth, cell number by Coulter counter. It is filed as cell-based, mouse. The settings on record: 50 μg/ml sample, αMEM containing 2% FBS, days 0, 1, 3, 6 (FIG. 8). The method, then:
(§10) Respective cells were inoculated onto a 24 well culture plate (manufactured by Falcon) in 5×10^3 cells/well portions. Starting on the first day after the inoculation, each sample to be tested (Hep, 2DSH, 6DSH or NDSH) was added to the culture liquid (αMEM containing 2% FBS) to a final concentration of 50 μg/ml. On the zero day, first day, third day and sixth day after addition of the sample to be tested, the number of cells was counted using a Coulter counter (COULTER Z1, manufactured by Coulter Electronics Inc.). A case in which the sample to be tested was not added was used as the control.

Assay [9] concerns cell strain ST2. Described as above. The class given is cell-based, mouse. Particulars: 50 μg/ml sample, αMEM containing 2% FBS, days 0, 1, 3, 6 (FIG. 9). The method, then: as §10
Assay [10] deals with Wistar rat. The assay is described as follows: Transplantation under the cranial periosteum, ratio of area of formed bone to hydroxyapatite region (image analysis). It is filed as in vivo. Particulars: 3 mg/ml sample on hydroxyapatite, fourth week and sixth week (FIG. 6). The procedure: as §3, §4
In the same manner as in the aforementioned “5. Actions on cell differentiation (5)”, slices of the transplanted parts were prepared by sacrificing each animal on the fourth week and sixth week after transplantation of the sample to be tested (n=2 for each group). Ratio of the area of formed bone (hard tissue) to the area of the hydroxyapatite region observed in the image of said slice was analyzed by using an image analyzing software (Scion image; Scion Corporation).

The test system of assay [11] is Wistar rat. The assay is described as follows: Transplantation under the cranial periosteum, ratio of area of bone tissue to total tissues (image analysis). It is filed as in vivo. The settings on record: 3 mg/ml sample on hydroxyapatite, fourth, eighth and twelfth week (FIG. 7). The procedure: as §3, §4
In the same manner as in the aforementioned “5. Actions on cell differentiation (5)”, slices of the transplanted parts were prepared by sacrificing each animal on the fourth week, eighth week and twelfth week after transplantation of the sample to be tested (n=5 for each group). Ratio of the area of bone tissue to the area of the total tissues observed in the image of the slices of transplanted region was analyzed using an image analyzing software (Scion image; Scion Corporation). In this connection, the bars of respective weeks in FIG. 7 show the results in the control group, 2DSH group, 6DSH group, NDSH group and Hep group, respectively, starting from the left side.

Regarding 2-O-desulfated heparin [2DSH], the “formation of calcification matter (alizarin staining)” value (“formation of calcification matter” for short) in the assay with cell strain MC3T3-E1 [1] is on record as “accelerated formation of calcification matter”; in the assay on cell strain ST2 [2], “accelerated formation of calcification matter; also recorded: strong acceleration”. The “formation of bone (HE staining, optical microscope)” value (“formation of bone” for short) with Wistar rat [3] is on record as “formation of bone was observed; also recorded: Remarkable bone formation”. Further, the “ALP activity of the cell strain MC3T3-E1 under the serum-free condition” value in the assay on cell strain MC3T3-E1 [4] is given as “increased the ALP activity; also recorded: particularly effective”. The “ALP activity of the cell strain ST2 under the serum-free condition” value in the assay on cell strain ST2 [5] was “increased the ALP activity; also recorded: particularly effective”. Further, the “ALP activity of the cell strain MC3T3-E1” value in the assay with cell strain MC3T3-E1 [6] is “increased the ALP activity”. In addition, in the assay on cell strain ST2 [7], the “ALP activity of the cell strain ST2” value was “increased the ALP activity”. For the same substance, in the assay on cell strain MC3T3-E1 [8], the “growth of the cell strain MC3T3-E1 (number of cells)” value (shortened to “growth of the cell strain MC3T3-E1”) is “small in comparison with that of Hep; also recorded: suppress growth”. In addition, in the assay on cell strain ST2 [9], the “growth of the cell strain ST2 (number of cells)” value is reported as “accelerated growth”. Also, the “ratio of the area of formed bone (hard tissue) to the area of the hydroxyapatite region” value (“ratio of the area of formed bone” for short) in the assay on Wistar rat [10] is recorded as “formation of bone (hard tissue) was confirmed within a broad range; also recorded: remarkable”. In addition, the “ratio of the area of bone tissue to the area of the total tissues” value (shortened to “ratio of the area of bone tissue”) with Wistar rat [11] is on record as “formation of bone (hard tissue) was confirmed within a broad range; also recorded: remarkable”.
For heparin [reference compound], the “formation of calcification matter” value in the assay on cell strain MC3T3-E1 [1] is reported as “accelerated formation of calcification matter”; with cell strain ST2 [2] it was “accelerated formation of calcification matter; also recorded: strong acceleration”. Besides, in the assay with Wistar rat [3], the “formation of bone” value was “formation of bone was observed”. Moreover, in the assay with cell strain MC3T3-E1 [4], the “ALP activity of the cell strain MC3T3-E1 under the serum-free condition” value is “increased the ALP activity; also recorded: particularly effective”. Moreover, the “ALP activity of the cell strain ST2 under the serum-free condition” value in the assay on cell strain ST2 [5] is listed as “increased the ALP activity”. The “ALP activity of the cell strain MC3T3-E1” value in the assay with cell strain MC3T3-E1 [6] is given as “increased the ALP activity; also recorded: particularly effective”. Moreover, the “ALP activity of the cell strain ST2” value in the assay on cell strain ST2 [7] was “increased the ALP activity”. Also, the “growth of the cell strain MC3T3-E1” value with cell strain MC3T3-E1 [8] is reported as “suppress growth”. The “growth of the cell strain ST2 (number of cells)” value with cell strain ST2 [9] was “suppressed it”. Moreover, the “ratio of the area of formed bone” value in the assay with Wistar rat [10] was “formation of bone (hard tissue) was confirmed within a broad range”. Moreover, in the assay on Wistar rat [11], the “ratio of the area of bone tissue” value is listed as “formation of bone (hard tissue) was confirmed within a broad range; also recorded: remarkable”.
N-desulfated heparin [NDSH]: the figures for the “formation of calcification matter” value with cell strain MC3T3-E1 [1] and with cell strain ST2 [2] were “accelerated formation of calcification matter” and “accelerated formation of calcification matter; also recorded: strong acceleration”, respectively. Further, in the assay with Wistar rat [3], the “formation of bone” value was “formation of bone was observed”. The “ALP activity of the cell strain MC3T3-E1 under the serum-free condition” value in the assay with cell strain MC3T3-E1 [4] is reported as “increased the ALP activity; also recorded: particularly effective”. In addition, the “ALP activity of the cell strain ST2 under the serum-free condition” value in the assay with cell strain ST2 [5] was “increased the ALP activity”. In addition, the “ALP activity of the cell strain MC3T3-E1” value with cell strain MC3T3-E1 [6] is listed as “increased the ALP activity”. For the same substance, in the assay on cell strain ST2 [7], the “ALP activity of the cell strain ST2” value was “increased the ALP activity; also recorded: particularly effective”. Moreover, in the assay on cell strain MC3T3-E1 [8], the “growth of the cell strain MC3T3-E1” value is on record as “small in comparison with that of Hep; also recorded: suppress growth”. The “ratio of the area of formed bone” value in the assay on Wistar rat [10] was “formation of bone (hard tissue) was confirmed within a broad range; also recorded: remarkable”. The “ratio of the area of bone tissue” value in the assay with Wistar rat [11] is “formation of bone (hard tissue) was confirmed within a broad range; also recorded: remarkable”.
As for 6-O-desulfated heparin [6DSH], the “formation of calcification matter” value in the assay on cell strain MC3T3-E1 [1] and in the assay on cell strain ST2 [2] was “accelerated formation of calcification matter” throughout. The “formation of bone” value with Wistar rat [3] is listed as “formation of bone was observed”. Besides, the “ALP activity of the cell strain MC3T3-E1 under the serum-free condition” value with cell strain MC3T3-E1 [4] is “increased the ALP activity”. Moreover, in the assay on cell strain ST2 [5], the “ALP activity of the cell strain ST2 under the serum-free condition” value was “increased the ALP activity”. Also, in the assay with cell strain MC3T3-E1 [6], the “ALP activity of the cell strain MC3T3-E1” value is “increased the ALP activity”. For the same substance, in the assay on cell strain ST2 [7], the “ALP activity of the cell strain ST2” value is recorded as “increased the ALP activity”. Moreover, the “growth of the cell strain MC3T3-E1” value in the assay with cell strain MC3T3-E1 [8] was “small in comparison with that of Hep; also recorded: suppress growth”. Further, in the assay on Wistar rat [10], the “ratio of the area of formed bone” value is “formation of bone (hard tissue) was confirmed within a broad range”. The “ratio of the area of bone tissue” value with Wistar rat [11] is “formation of bone (hard tissue) was confirmed within a broad range”.
